Counter-ions that a name gives are not always drawn.
Assays:
microtubules = details: in vitro / cells, in words; cited from earlier work
[1] = Chemical stability in buffer or water; type: physicochemical
Procedure: The compound was subjected to stability studies according to the following procedures.
(§1) Stabilities of derivatives at various pHs were studied at 25° and 37°. The plasma studies were conducted at 37° in rat and human plasma. Human plasma was obtained from Watkins Hospital and rat plasma was obtained from the Animal Care Unit of the University of Kansas. The derivative concentration used was around 20-25 μg/ml. A stock solution of the compound was prepared at 0.8-1.0 mg/mL and was added to plasma to give the desired concentration (20-25 μg/mL). One hundred microliter samples were removed and was quenched with 250 uL. acetonitrile and centrifuged to precipitate the plasma proteins. The degradation kinetics were studied by HPLC plotting peak area vs. time. The t90 and t50 were calculated. Both chemical and plasma studies were followed by high performance liquid chromatography using a RP-8 column (15 cm) and a precolumn (5 cm). The detector was set at 227 nm. The mobile phase consisted of 0.02M acetate (pH 5): acetonitrile 50:50 or 35:65 and the flow rate ranged from 1-1.5 mL/min or the same solvents containing 0.001M tetrabutylammoniumydrogensulphate and a flow rate of 1 mL/min.
The identity of this peak was further confirmed by the degradation studies of the new derivatives. Thus, 2'(DMG) taxol was incubated with water at 37° and the product was concentrated and purified by preparative TLC. The product after purification was analyzed by HPLC and spectroscopic methods.

[2] = system: human mammary carcinoma MX-1 xenograft; assay: Subrenal capsule human mammary carcinoma MX-1 xenograft in mice; details: for ANML BODY WT DIFF (test minus control) / TEST BODY WT CHG / # OF ANMLS ALIVE CALC/TOTAL / Average tumor WEIGHT CHANGE (DELTA) / Average tumor weight, FINAL: Q4D; for ANML BODY WT DIFF (test minus control) / TEST BODY WT CHG: Day 1 to 11; for # OF ANMLS ALIVE CALC/TOTAL / Average tumor WEIGHT CHANGE (DELTA) / Average tumor weight, FINAL / % T/C: Day 11; for % T/C: Q4D Days 1, 5, 9
Excerpt: The procedures followed are those described at pages 23-24 of NIH Publication No. 84-2635, In Vivo Cancer Model (February 1984).
In the procedure, test groups of mice (6 mice per test group) and control groups of 12 mice per group are utilized. A tumor fragment (human mammary carcinoma MX-1 xenograft), is implanted under the membranous covering of the kidney of each mouse.
Day 0: Anesthetize animals. Record body weight (Weigh Day 1). Implant tumor, measure and record. Randomize animals after they recover from the anesthetic. Run bacterial cultures. Determine solubilities of test agent. Record deaths daily.
Day 1: Check cultures. Discard experiment if contaminated. Prepare test materials. Initiate test agent injections (in the nape of the neck) based on individual body weight. Treatment is Q4D on Days 1, 5, and 9. Prepare test agent fresh on each injection day and administer based on individual body weight for that day.
Days 5 and 9: Prepare test agent fresh on each injection day and administer based on individual body weight for that day.
Day 11: End and evaluate experiment. Record body weights (Weigh Day 2). Measure tumor in OMU's (Ocular Micrometer Unit--10 OMU's=1 mm) and record.
The parameter measured is mean tumor weight change (delta) based on length and width measurements in millimeters. Mean animal body weights are computed for Day 1 and Day 11, compute T/C for all test groups with>65% survivors on Day 11. An excessive body weight change difference (test minus control) may also be used in evaluating toxicity. The dimensions are measured and recorded in Ocular Micrometer Units (OMU). A computer is utilized for the following:
(1) Converts OMU's to millimeters (mm).
(2) Calculates tumor weights (mgs) from tumor dimensions (mm×mm) following the formula for the volume of a prolate ellipsoid: [formula] (3) Calculates the change (delta) in mean tumor weight for each group of mice:
Change in Mean Tumor Weight=Mean Tumor WeightFINAL -Mean Tumor WeightINITIAL.
(4) Calculates the change (delta) in mean tumor weight for test (T) and control (C) groups.
(5) Calculates T/C% for all test groups with>65% survivors on Final Evaluation Day: [formula]

[3] = Plasma stability, human plasma; type: in vitro ADME; details: Human plasma, 37° C.
Procedure: as §1, with “The derivative concentration used was around 20-25 μg/ml. A stock solution of the compound was prepared at 0.8-1.0 mg/mL and was added to plasma to give the desired concentration (20-25 μg/mL).” left out

Solubility = type: physicochemical
microtubule assembly = assay: In vitro microtubule assembly kinetics; type: biochemical; details: rank order
Procedure: (A) In vitro Microtubule Assembly Kinetics Studies
The microtubule assembly study was conducted using both 2' and 7-derivatives according to the in vitro procedures disclosed, for example, in Mellado et al., Biochemical and Biophysical Research Communications, Vol. 124, No. 2 (1984), pp. 329-336; Magri et al., J. Org. Chem., 51, 797-802 (1986); and Parness et al., Biochemical and Biophysical Research Communications, Vol. 105, No. 3, pp. 1082-1091 (1982).

B-16 melanoma cells = assay: In vitro B16 melanoma cell proliferation; type: cell-based; details: rank order
Procedure: These studies were conducted according to standard procedures as described in Donoso and Himes, Cancer Biochem. Biophysics, vol. 7, (1984), p. 133.

COc1cc2c(c(OC)c1OC)-c1ccc(OC)c(=O)cc1[C@@H](NC(C)=O)CC2 [colchicine]
Effect on microtubules (microtubules): depolymerize microtubules in cells

CCN(CC)CCC(=O)O[C@@H](C(=O)O[C@H]1C[C@@]2(O)[C@@H](OC(=O)c3ccccc3)[C@@H]3[C@]4(OC(C)=O)CO[C@@H]4C[C@H](O)[C@@]3(C)C(=O)[C@H](OC(C)=O)C(=C1C)C2(C)C)[C@@H](NC(=O)c1ccccc1)c1ccccc1 [Compound 3, HCl salt of 2'-(3-(N,N-diethylamino)propionyl)taxol]
half-life ([1]; 0.02 M Acetate, 0.01 mg/mL, pH 3.5, 25° C.): 439 h | half-life ([1]; 0.02 M Phosphate, 0.02 mg/mL, pH 7.4, 25° C.): 0.25 h | ANML BODY WT DIFF (test minus control) ([2]; Table 2, 4.50 mg/kg): 1.2 | TEST BODY WT CHG ([2]; Table 2, 4.50 mg/kg): -2.8 | # OF ANMLS ALIVE CALC/TOTAL ([2]; Table 2, 4.50 mg/kg): 5/5 | Average tumor WEIGHT CHANGE (DELTA) ([2]; Table 2, 4.50 mg/kg): -.78 MGS | Average tumor weight, FINAL ([2]; Table 2, 4.50 mg/kg): .00 MGS | ANML BODY WT DIFF (test minus control) ([2]; Table 2, 9.00 mg/kg): 1.3 | TEST BODY WT CHG ([2]; Table 2, 9.00 mg/kg): -2.7 | # OF ANMLS ALIVE CALC/TOTAL ([2]; Table 2, 9.00 mg/kg): 5/5 | Average tumor WEIGHT CHANGE (DELTA) ([2]; Table 2, 9.00 mg/kg): -.87 MGS | Average tumor weight, FINAL ([2]; Table 2, 9.00 mg/kg): .00 MGS | ANML BODY WT DIFF (test minus control) ([2]; Table 2, 18.00 mg/kg): .7 | TEST BODY WT CHG ([2]; Table 2, 18.00 mg/kg): -3.3 | # OF ANMLS ALIVE CALC/TOTAL ([2]; Table 2, 18.00 mg/kg): 3/4 | Average tumor WEIGHT CHANGE (DELTA) ([2]; Table 2, 18.00 mg/kg): -.82 MGS | Average tumor weight, FINAL ([2]; Table 2, 18.00 mg/kg): .00 MGS | % T/C ([2]; Table 2, 36.00 mg/kg): TOX | # OF ANMLS ALIVE CALC/TOTAL ([2]; Table 2, 36.00 mg/kg): 0/5 | half-life [3]: 4.2 min | solubility (Solubility): ~ 0.8 mg/mL

CC[C@]1(O)C[C@H]2CN(CCc3c([nH]c4ccccc34)[C@@](C(=O)OC)(c3cc4c(cc3OC)N(C=O)[C@H]3[C@@](O)(C(=O)OC)[C@H](OC(C)=O)[C@]5(CC)C=CCN6CC[C@]43[C@@H]65)C2)C1 [vincristine]
Effect on microtubules (microtubules): inhibit microtubule assembly and to depolymerize steady state microtubules

CCN(CC)CCC(=O)O[C@@H](C(=O)O[C@H]1C[C@@]2(O)[C@@H](OC(=O)c3ccccc3)[C@@H]3[C@]4(OC(C)=O)CO[C@@H]4C[C@H](O)[C@@]3(C)C(=O)[C@H](OC(C)=O)C(=C1C)C2(C)C)[C@@H](NC(=O)c1ccccc1)c1ccccc1 [preferred compound 1, 2'(N,N-diethylaminopropionyl)taxol]
Ability to assemble microtubules (order) (microtubule assembly): taxol >7-(N,N-dimethylglycyl)taxol(11)>2'(N,N-diethylaminopropionyl)taxol(8)>2'(N,N-dimethylglycyl)taxol(2) | Order of effectiveness in B-16 melanoma cell proliferation study (B-16 melanoma cells): taxol>2'-(N,N-dimethylglycyl)taxol>2'-(N,N-diethylaminopropionyl)taxol>7-(N,N-dimethylglycyl)taxol

CC[C@]1(O)C[C@@H]2CN(CCc3c([nH]c4ccccc34)[C@@](C(=O)OC)(c3cc4c(cc3OC)N(C)[C@H]3[C@@](O)(C(=O)OC)[C@H](OC(C)=O)[C@]5(CC)C=CCN6CC[C@]43[C@@H]65)C2)C1 [vinblastine]
Effect on microtubules (microtubules): inhibit microtubule assembly and to depolymerize steady state microtubules

CC(=O)O[C@H]1C(=O)[C@]2(C)[C@@H](OC(=O)CN(C)C)C[C@H]3OC[C@@]3(OC(C)=O)[C@H]2[C@H](OC(=O)c2ccccc2)[C@]2(O)C[C@H](OC(=O)[C@H](O)[C@@H](NC(=O)c3ccccc3)c3ccccc3)C(C)=C1C2(C)C [Compound 7, 7-(N,N-Dimethylglycyl)Taxol]
% T/C ([2]; Table 2, 4.13 mg/kg): 34% | ANML BODY WT DIFF (test minus control) ([2]; Table 2, 4.13 mg/kg): -.5 | TEST BODY WT CHG ([2]; Table 2, 4.13 mg/kg): -4.5 | # OF ANMLS ALIVE CALC/TOTAL ([2]; Table 2, 4.13 mg/kg): 4/5 | Average tumor WEIGHT CHANGE (DELTA) ([2]; Table 2, 4.13 mg/kg): 4.92 MGS | Average tumor weight, FINAL ([2]; Table 2, 4.13 mg/kg): 5.66 MGS | % T/C ([2]; Table 2, 8.25 mg/kg): 23% | ANML BODY WT DIFF (test minus control) ([2]; Table 2, 8.25 mg/kg): .1 | TEST BODY WT CHG ([2]; Table 2, 8.25 mg/kg): -3.9 | # OF ANMLS ALIVE CALC/TOTAL ([2]; Table 2, 8.25 mg/kg): 4/4 | Average tumor WEIGHT CHANGE (DELTA) ([2]; Table 2, 8.25 mg/kg): 3.38 MGS | Average tumor weight, FINAL ([2]; Table 2, 8.25 mg/kg): 4.19 MGS | % T/C ([2]; Table 2, 16.50 mg/kg): -93% | ANML BODY WT DIFF (test minus control) ([2]; Table 2, 16.50 mg/kg): -1.7 | TEST BODY WT CHG ([2]; Table 2, 16.50 mg/kg): -5.7 | # OF ANMLS ALIVE CALC/TOTAL ([2]; Table 2, 16.50 mg/kg): 3/4 | Average tumor WEIGHT CHANGE (DELTA) ([2]; Table 2, 16.50 mg/kg): -.55 MGS | Average tumor weight, FINAL ([2]; Table 2, 16.50 mg/kg): .04 MGS | ANML BODY WT DIFF (test minus control) ([2]; Table 2, 33.00 mg/kg): 1.3 | TEST BODY WT CHG ([2]; Table 2, 33.00 mg/kg): -2.7 | # OF ANMLS ALIVE CALC/TOTAL ([2]; Table 2, 33.00 mg/kg): 4/5 | Average tumor WEIGHT CHANGE (DELTA) ([2]; Table 2, 33.00 mg/kg): -.74 MGS | Average tumor weight, FINAL ([2]; Table 2, 33.00 mg/kg): .00 MGS | Ability to assemble microtubules (order) (microtubule assembly): taxol >7-(N,N-dimethylglycyl)taxol(11)>2'(N,N-diethylaminopropionyl)taxol(8)>2'(N,N-dimethylglycyl)taxol(2) | Order of effectiveness in B-16 melanoma cell proliferation study (B-16 melanoma cells): taxol>2'-(N,N-dimethylglycyl)taxol>2'-(N,N-diethylaminopropionyl)taxol>7-(N,N-dimethylglycyl)taxol

— patent US4960790A, “Derivatives of taxol, pharmaceutical compositions thereof and methods for the preparation thereof” (University of Kansas, priority 1989, dated 1990)
